Patent US9278982B2, “Targeting human thymidylate kinase induces DNA repair toxicity in malignant tumor cells” (NATIONAL YANG-MING UNIVERSITY, priority 2010, dated 2016)

Assays:
thymidine kinase 1 (TK1) = molecular target: T1, thymidine kinase 1 (TK1) (Homo sapiens, UniProt P04183); experiment: Luciferase-coupled TK assay; type: biochemical; conditions: GST-hTK1 protein (5 μg), 10 min preincubation
T1 construct: made in house; host or cells: E. coli JM109 (pGEX-3X-hTK1)
Procedure: FIG. 12. Identification of a novel hTMPK inhibitor. (A) A screen of TMPK inhibitor by luciferase-coupled assay. (B) The chemical structures of YMU1 (compound 21) and related molecules. (C) Effect of YMU1 and derivative compounds on hTMPK inhibition using purified hTMPK protein (0.5 μg) with 10 min preincubation prior to reaction using luciferase-coupled TMPK analysis. (D) Effect of YMU1 on activity of purified TMPK (0.5 μg) and GST-hTK1 protein (5 μg) with 10 min preincubation prior to reaction. Data represent mean±s.d. (n=4) (E) Molecular models of the TMPK-YMU1 complex. Left panel: TMPK/ATP/Mg+2; right panel: TMPK/YMU1. The TMPK is represented in surface electrostatic potential (upper) and structural ribbon (lower). ATP and YMU1 are shown in green and blue stick, respectively, with colored atom (O, red; S, yellow; P, orange). […]
The TK reaction was started by adding purified hTMPK in 50 μl of TK assay buffer (50 mM Tris-HCl, pH 7.5, 1 mM CHAPS, 3 mg/ml BSA, 2.5 mM MgCl2, 50 μM ATP and 100 μM thymidine) in 96 wells plate at 25° C. for 10 min and terminated by adding 200 μl of thymidine (1.25 mM), followed by transferring 10 μl of reaction solution to a white 96-wellplate containing 90 μl of luciferase assay buffer (50 mM Glycine, 0.5 mM EDTA and 5 mM EDTA, pH 7.0, 0.1 μg of luciferase, 50 μM luciferin and 0.1% BSA). The luminescence was measured with a luminescence counter (Packard).

dUTPase = molecular target: T2, dUTPase (Homo sapiens, UniProt P33316); experiment: dUTPase activity assay; type: biochemical; conditions: 0.1 μg purified GST-dUTPase, 10 min incubation with YMU1
T2 construct: made in house; host or cells: E. coli JM109 (pGEX-2T-dUTPase (WT))
T2 sequence (P33316 1-164 isoform P33316-2): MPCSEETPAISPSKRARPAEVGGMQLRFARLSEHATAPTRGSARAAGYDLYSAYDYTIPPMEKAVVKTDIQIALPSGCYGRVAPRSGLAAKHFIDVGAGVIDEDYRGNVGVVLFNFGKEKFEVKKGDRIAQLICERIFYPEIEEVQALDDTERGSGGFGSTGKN
Procedure: FIG. 19. No effect of YMU1 on dUTPase activity. 0.1 μg of purified GST-dUTPase protein was incubated with the indicated concentration of YMU1 for 10 min prior to action using dUTPase activity analysis.
For detecting dUTPase activity, the EnzChek Pyrophosphate Assay kit (Invitrogen) was used for measuring the dUTPase activity following the manufacturer's instruction. […] Reaction mixtures were incubated at 37° C. for 3 minutes. Samples (15 μl each) were added to the reaction mixtures [715 μl dH2O, 50 μl 20× reaction buffer, 200 μl MESG substrate, 1 U purine nucleoside phosphorylase, 0.03 U inorganic pyrophosphatase] and incubated at 22° C. for 45 minutes. The absorbance at 360 nm was measured using an ELISA plate reader.

MDA-MB231 cells = experiment: Repair of doxorubicin-induced DNA lesions (γH2AX, Rad51, XRCC1 foci staining); type: cell-based, human
Procedure: FIG. 14. Effect of YMU1 on genomic toxicity and DNA repair. […] After overnight, cells were exposed to doxorubicin and recovered. […]
For γH2AX, Rad51 and XRCC1 staining, cells were fixed with 4% paraformaldehyde for 30 min at room temperature and were incubated with TBS (50 mM Tris-HCl, pH 7.4, 150 mM NaCl) plus 0.3% Triton X-100 for 5 min. The coverslips were blocked with MAXblock™ (Active Motif) for 1 h at 37° C., followed by staining with primary antibodies: anti-γH2AX monoclonal antibody (1:1000), anti-Rad51 polyclonal antibody (1:500) or anti-XRCC1 monoclonal antibody (1:500) overnight at 4° C. After extensive washing, cells were stained with secondary antibodies and Hoechst 33342 for 1 h at room temperature. After mounting, cells were analyzed and photographed with a Carl Zeiss fluorescence microscope equipped with AxioCam digital camera and Axio Vision Rel. 4.8 imaging software.

[1] = test system: various cancer cell lines; experiment: Colony formation assay after YMU1 and doxorubicin; type: cell-based, human; conditions: YMU1 72 h, doxorubicin 0.1 μM 4 h, 14 days of culture
Procedure: FIG. 16. In vitro and in vivo effect of YMU1 on doxorubicin sensitization. (A) A panel of cell lines were pre-treated with vehicle, YMU1 (compound 21), D6 (ethyl 4-(2-chloroacetyl)piperazine-1-carboxylate) or D7 (compound 28) for 3 days and were exposed to different concentration of doxorubicin for 4 h. […] The enhancement (fold) of doxorubicin sensitivity in each cell line was calculated. Data represent mean±s.d., n=3; each experiment was quadruplex. Inset indicates the IC50 value of doxorubicin in various cell lines. […] Following overnight culture, cells were refreshed with growth medium. After 14 days of culture, colonies were fixed, stained by crystal violet and counted. (C) HCT-116 p53^−/− cells were subcutaneously implanted in the right flank of Balb/c nude mice (each experimental group n=8). Arrow indicated the time of stopping drug treatment. The tumor volume was estimated as described in Methods of the Invention section. (D) After 2 weeks recovered from treatment, mice were sacrificed for tumor weight measurement. Data represent mean±s.e.m; **, P<0.01 by a two-tailed Student's t-test. (E) Ki 67 proliferation marker staining of tumor shown in left panel. Scale bar, 50 μm. (F) Model of doxorubicin sensitization by YMU1 in malignant cancer cells. […]

TMPK = molecular target: T3, TMPK (Homo sapiens, UniProt P23919); experiment: In vitro TMPK inhibitory activity of TMPK inhibitor derivatives (inhibition yield); type: biochemical; set-up: GST (N, cleaved yes); made in house; host or cells: E. coli JM109 (pGEX-2T-hTMPK), inferred; conditions: 2 μM; n=3 or 6; read-out: inhibition yield, normalized to compound 21 (YMU1) = 100%
T3 sequence (P23919 1-212): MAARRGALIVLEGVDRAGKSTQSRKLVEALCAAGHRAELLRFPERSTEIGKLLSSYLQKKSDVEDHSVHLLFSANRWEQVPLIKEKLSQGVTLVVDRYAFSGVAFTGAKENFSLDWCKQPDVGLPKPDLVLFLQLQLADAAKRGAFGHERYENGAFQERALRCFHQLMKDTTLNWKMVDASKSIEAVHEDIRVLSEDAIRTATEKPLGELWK
From the text: Chemical structures of the different TMPK inhibitor derivatives tested for in vitro TMPK inhibitory activity and in vivo doxorubicin sensitization activity (in MDA-MB231 cells) are depicted below.

[2] = YMU1 2 μM 72 h, doxorubicin exposure and recovery

T1 sequence (P04183 whole entry): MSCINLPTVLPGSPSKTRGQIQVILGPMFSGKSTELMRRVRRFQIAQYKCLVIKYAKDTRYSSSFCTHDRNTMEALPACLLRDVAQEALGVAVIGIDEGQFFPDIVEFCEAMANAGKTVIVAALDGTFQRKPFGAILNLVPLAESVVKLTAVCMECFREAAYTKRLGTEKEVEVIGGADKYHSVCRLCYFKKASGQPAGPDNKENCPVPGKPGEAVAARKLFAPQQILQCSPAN

CCOC(=O)N1CCN(C(=O)Cn2sc3nc(C)cc(C)c3c2=O)CC1 [compound 21, Ethyl 4-(2-(4,6-dimethyl-3-oxoisothiazolo[5,4-b]pyridin-2(3H)-yl)acetyl) piperazine-1-carboxylate]
inhibitory effect on activity of purified thymidine kinase 1 (TK1) (thymidine kinase 1 (TK1)): without inhibitory effect | inhibition of dUTPase (dUTPase): unable to inhibit dUTPase | Rad51 foci (MDA-MB231 cells; [2]): persistent Rad51 foci | XRCC1 foci formation (MDA-MB231 cells; [2]): increase in XRCC1 foci formation | numbers of DNA lesions formation (γH2AX focus staining) (MDA-MB231 cells; YMU1 2 μM 72 h pre-treatment, doxorubicin 0.1 μM): did not affect numbers of DNA lesions formation | cells still γH2AX-positive (MDA-MB231 cells; YMU1 2 μM 72 h pretreatment, recovery 48 h post-doxorubicin (0.1 μM) exposure): over 70% | lethal effects of doxorubicin (colony assay) [1]: markedly enhanced the lethal effects of doxorubicin | inhibition at 2 µM (TMPK): 100%
